Reference: the supplement of paper PMC10307832

Assays:
Test in all cases: relative viability (nuclei count vs DMSO), 5 days (fraction); higher = more cells survive
[1] = compound: C[C@@]1(C(=O)Nc2ccc(F)nc2)CCCN1c1nc(Nc2cc(C3CC3)n[nH]2)c2cccn2n1 + O=C(CCCCCCC(=O)Nc1ccccc1)NO [Vorinostat] (partner 1 µM)
Procedure, shortened: (§1)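 Each reported value is a median over duplicate plates. It expresses relative viability: treated-well nuclei count divided by vehicle-well nuclei count. Lung cancer cell lines in 1536-well plates were dosed by pin tool a day after seeding, alone with one drug or with a fixed anchor-drug dose plus five library-drug doses (not always all listed) in √10 steps, and nuclei were counted after 5 days.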

Motesanib + Alpelisib = compound: CC1(C)CNc2cc(NC(=O)c3cccnc3NCc3ccncc3)ccc21 [Motesanib] + Cc1nc(NC(=O)N2CCC[C@H]2C(N)=O)sc1-c1ccnc(C(C)(C)C(F)(F)F)c1 [Alpelisib] (partner 2 µM)
Procedure, shortened: as §1

Motesanib + Phenformin = compound: CC1(C)CNc2cc(NC(=O)c3cccnc3NCc3ccncc3)ccc21 [Motesanib] + N=C(N)NC(=N)NCCc1ccccc1 [Phenformin] (partner 250 µM)
Procedure, shortened: as §1

Motesanib + Trametinib = compound: CC1(C)CNc2cc(NC(=O)c3cccnc3NCc3ccncc3)ccc21 [Motesanib] + CC(=O)Nc1cccc(-n2c(=O)n(C3CC3)c(=O)c3c(Nc4ccc(I)cc4F)n(C)c(=O)c(C)c32)c1 [Trametinib] (partner 0.02 µM)
Procedure, shortened: as §1

| Cell Line | relative viability ([1]; first compound 0.04 µM) | relative viability ([1]; first compound 0.1265 µM) | relative viability ([1]; first compound 0.4 µM) | relative viability ([1]; first compound 1.265 µM) | relative viability (Motesanib + Alpelisib; first compound 0.01 µM) | relative viability (Motesanib + Alpelisib; first compound 0.03162 µM) | relative viability (Motesanib + Alpelisib; first compound 0.1 µM) | relative viability (Motesanib + Alpelisib; first compound 0.3162 µM) | relative viability (Motesanib + Alpelisib; first compound 1 µM) | relative viability (Motesanib + Phenformin; first compound 0.01 µM) | relative viability (Motesanib + Phenformin; first compound 0.03162 µM) | relative viability (Motesanib + Phenformin; first compound 0.1 µM) | relative viability (Motesanib + Phenformin; first compound 0.3162 µM) | relative viability (Motesanib + Phenformin; first compound 1 µM) | relative viability (Motesanib + Trametinib; first compound 0.01 µM) | relative viability (Motesanib + Trametinib; first compound 0.03162 µM) | relative viability (Motesanib + Trametinib; first compound 0.1 µM) | relative viability (Motesanib + Trametinib; first compound 0.3162 µM) | relative viability (Motesanib + Trametinib; first compound 1 µM) |
| --- | --- | --- | --- | --- | --- | --- | --- | --- | --- | --- | --- | --- | --- | --- | --- | --- | --- | --- | --- |
| HCC-827 | 0.891 | 0.933 | 0.731 | 0.823 | 0.99 | 1.01 | 1.03 | 1.03 | 1.03 | 0.449 | 0.475 | 0.405 | 0.448 | 0.451 | 0.442 | 0.593 | 0.505 | 0.541 | 0.623 |
| HOP-62 | 0.589 | 0.529 | 0.464 | 0.527 | 0.91 | 0.663 | 0.922 | 1.3 | 1.15 | 0.641 | 0.694 | 0.678 | 0.74 | 0.761 | 0.366 | 0.379 | 0.37 | 0.405 | 0.424 |
| IA-LM | 0.914 | 0.999 | 0.836 | 0.928 | 0.616 | 0.788 | 0.711 | 0.891 | 0.746 |  |  |  |  |  |  |  |  |  |  |
| LC-2-ad | 0.66 | 0.554 | 0.526 | 0.186 | 0.801 | 0.919 | 0.923 | 1.03 | 0.813 | 0.531 | 0.664 | 0.566 | 0.566 | 0.534 | 0.9 | 0.903 | 0.865 | 0.871 | 0.84 |
| LCLC-97TM1 | 0.361 | 0.28 | 0.106 | 0.0755 | 0.238 | 0.241 | 0.283 | 0.296 | 0.263 | 0.427 | 0.424 | 0.46 | 0.419 | 0.418 | 0.152 | 0.202 | 0.198 | 0.226 | 0.195 |
| LCLC-103H | 0.763 | 0.62 | 0.593 | 0.563 |  | 0.947 | 1.06 | 0.931 | 0.987 | 0.338 | 0.298 | 0.294 | 0.369 | 0.37 | 0.674 | 0.707 | 0.659 | 0.744 | 0.682 |
| LK-2 | 0.294 | 0.182 | 0.151 | 0.202 | 1.06 | 0.962 | 1.44 | 1.05 | 1.19 | 0.372 | 0.39 |  | 0.538 | 0.549 | 0.662 | 0.71 | 0.696 | 0.87 | 0.811 |
| LOU-NH91 | 0.961 | 0.856 | 0.747 | 0.711 | 0.746 | 0.759 | 0.708 | 0.707 | 0.802 | 0.672 | 0.736 | 0.78 | 0.75 | 0.78 | 0.789 | 0.767 | 0.819 | 0.802 | 0.781 |
| LU99A | 0.368 | 0.245 | 0.229 | 0.193 | 0.465 | 0.555 | 0.511 | 0.488 | 0.559 | 0.737 | 0.886 | 0.819 | 0.952 | 0.894 | 0.302 | 0.596 | 0.548 | 0.539 | 0.583 |
